Residues, ends and D or L forms follow the SMILES beside them. *: point of attachment. C16 diacid = O=C(O)CCCCCCCCCCCCCCC(=O)*
What follows are compounds tested against T1, human GIP receptor (Homo sapiens, UniProt P48546) (assay: cAMP assay Alternative 1 (CisBio assay), GIPR antagonism). Conditions: not given.
T1 construct: host or cells: HEK-293 cells, transient transfection (Lipofectamine 2000), cDNA in pCMV-Script vector
T1 sequence (P48546 22-466): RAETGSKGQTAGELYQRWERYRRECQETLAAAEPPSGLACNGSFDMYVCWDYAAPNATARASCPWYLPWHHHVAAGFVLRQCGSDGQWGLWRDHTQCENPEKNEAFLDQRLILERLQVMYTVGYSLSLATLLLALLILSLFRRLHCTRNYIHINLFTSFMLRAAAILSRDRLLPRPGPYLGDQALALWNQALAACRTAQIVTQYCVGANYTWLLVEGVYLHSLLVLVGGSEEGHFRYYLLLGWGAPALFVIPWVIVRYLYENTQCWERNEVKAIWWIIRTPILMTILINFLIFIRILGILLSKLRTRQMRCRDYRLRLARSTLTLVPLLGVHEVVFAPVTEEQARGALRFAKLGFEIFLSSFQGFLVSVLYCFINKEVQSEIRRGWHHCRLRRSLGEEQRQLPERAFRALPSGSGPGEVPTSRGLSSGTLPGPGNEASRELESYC
Format: cell-based
Method: HEK293 cells were cultured in 10% CO2 and 37° C. in Dulbecco's modified Eagle's medium supplemented with 10% fetal bovine serum, 2 mM glutamine, 180 units/ml penicillin, and 45 µg/ml streptomycin. Transient transfection with hGIPR for the CisBio assay from Table 2C was performed by using Lipofectamine 2000.
The in vitro functional activity of compounds towards human GIP receptor can also be determined in HEK-293 cells transiently expressing the receptor. On the day of the assay, cells were resuspended in HBSS buffer (Gibco, 14025-50) supplemented with […] (Gibco, 15630-106), 0.1% Pluronic F-68 (Gibco, 24040-032) and 0.1% casein (Sigma, C4765), and plated in 384-well plates at a density of 5000 cells/well. The GIP peptide analogues of the present disclosure were diluted in HBSS buffer supplemented with 20 mM HEPES, 0.1% pluronic, 0.1% casein and 500 uM IBMX. […] The resulting decrease in intracellular cAMP was quantitatively determined using the CisBio cAMP Dynamic 2 HTRF Assay Kit. The assay is based on a competition between native cAMP produced by cells and cAMP labeled with the dye d2 for binding to a cryptate labeled antibody. The specific signal (i.e. energy transfer signal) is inversely proportional to the concentration of cAMP in the sample.
The cAMP-d2 conjugate and the antibody anti-cAMP-Cryptate, both diluted in lysis buffer provided in the kit, were added to the cells according to the manufacturer's protocol. The resulting competitive assay was incubated for 60 minutes at room temperature, and the signal was detected by using a PerkinElmer Envision® instrument with excitation at 320 nm and emission at 665 nm and 620 nm. The HTRF ratio (emission at 665 nm/620 nm*10,000) is inversely proportional to the amount of cAMP present and is converted to nM cAMP per well using a cAMP standard curve. The dose-response curves were fitted using the non-linear regression analysis (four-logistic parameter equation) in GraphPad Prism, whereby pIC50 values were estimated. To test for agonistic properties at the GIP receptor, compounds were diluted and added to cells as described above and incubated for 30 min at 37° C. The resulting increase in intracellular cAMP was determined using the CisBio cAMP Dynamic 2 HTRF Assay Kit as described above.
The dose-response curves were fitted using the non-linear regression analysis (four-logistic parameter equation) in GraphPad Prism, whereby pIC50 values were estimated.

Row | SMILES | IC50
1 | CC[C@H](C)[C@H](NC(=O)[C@H](CO)NC(=O)[C@H](Cc1ccc(O)cc1)NC(=O)[C@H](CC(=O)O)NC(=O)[C@H](CO)NC(=O)[C@@H](NC(=O)[C@H](Cc1ccccc1)NC(=O)[C@@H](NC(=O)CNC(=O)[C@@H](N)CCC(=O)O)[C@@H](C)O)[C@@H](C)CC)C(=O)N[C@@H](C)C(=O)N[C@@H](CCSC)C(=O)N[C@@H](CC(=O)O)C(=O)N[C@@H](CCCCN)C(=O)N[C@H](C(=O)N[C@@H](CCCCNC(=O)CCCCCCCCCCCCCCC(=O)O)C(=O)N[C@@H](CCC(N)=O)C(=O)N[C@@H](CCC(N)=O)C(=O)N[C@@H](CC(=O)O)C(=O)N[C@@H](Cc1ccccc1)C(=O)N[C@H](C(=O)N[C@@H](CCC(=O)O)C(=O)N[C@@H](Cc1c[nH]c2ccccc12)C(=O)N[C@@H](CC(C)C)C(=O)N[C@@H](CC(C)C)C(=O)N[C@@H](C)C(=O)N[C@@H](CCC(N)=O)C(=O)N[C@@H](CCCCN)C(=O)N1CCC[C@H]1C(=O)N[C@@H](CO)C(=O)N[C@@H](CO)C(=O)NCC(=O)N[C@@H](C)C(=O)N1CCC[C@H]1C(=O)N1CCC[C@H]1C(=O)N1CCC[C@H]1C(=O)N[C@@H](CO)C(=O)O)C(C)C)[C@@H](C)CC [AT617] (H-EGTFISDYSIAMDKIK(C16 diacid)QQDFVEWLLAQKPSSGAPPPS-OH; N-terminus assumed) | 0.794 nM

Same assay, conditions: Table 2B; % inhibition of Emax

Row | SMILES | cAMP antagonism % inhib
2 | CC[C@H](C)[C@H](NC(=O)[C@H](CO)NC(=O)[C@H](Cc1ccc(O)cc1)NC(=O)[C@H](CCC(=O)O)NC(=O)[C@H](CO)NC(=O)[C@@H](NC(=O)[C@H](Cc1ccccc1)NC(=O)[C@@H](NC(=O)CNC(=O)[C@@H](N)CCC(=O)O)[C@@H](C)O)[C@@H](C)CC)C(=O)N[C@@H](C)C(=O)N[C@@H](CCSC)C(=O)N[C@@H](CCC(=O)O)C(=O)N[C@@H](CCCCN)C(=O)N[C@H](C(=O)N[C@@H](CCCCNC(=O)CCCCCCCCCCCCCCC(=O)O)C(=O)N[C@@H](CCC(N)=O)C(=O)N[C@@H](CCC(N)=O)C(=O)N[C@@H](CCC(=O)O)C(=O)N[C@@H](Cc1ccccc1)C(=O)N[C@H](C(=O)N[C@@H](CCC(=O)O)C(=O)N[C@@H](Cc1c[nH]c2ccccc12)C(=O)N[C@@H](CC(C)C)C(=O)N[C@@H](CC(C)C)C(=O)N[C@@H](C)C(=O)N[C@@H](CCC(N)=O)C(=O)N[C@@H](CCCCN)C(=O)N1CCC[C@H]1C(=O)N[C@@H](CO)C(=O)N[C@@H](CO)C(=O)NCC(=O)N[C@@H](C)C(=O)N1CCC[C@H]1C(=O)N1CCC[C@H]1C(=O)N1CCC[C@H]1C(=O)N[C@@H](CO)C(=O)O)C(C)C)[C@@H](C)CC [AT614] (H-EGTFISEYSIAMEKIK(C16 diacid)QQEFVEWLLAQKPSSGAPPPS-OH; N-terminus assumed) | 100%
3 | CC[C@H](C)[C@H](NC(=O)[C@H](CO)NC(=O)[C@H](Cc1ccc(O)cc1)NC(=O)[C@H](CC(=O)O)NC(=O)[C@H](CO)NC(=O)[C@@H](NC(=O)[C@H](Cc1ccccc1)NC(=O)[C@@H](NC(=O)CNC(=O)[C@@H](N)CCC(=O)O)[C@@H](C)O)[C@@H](C)CC)C(=O)N[C@@H](C)C(=O)N[C@@H](CCSC)C(=O)N[C@@H](CC(=O)O)C(=O)N[C@@H](CCCCN)C(=O)N[C@H](C(=O)N[C@@H](CCCCNC(=O)CCCCCCCCCCCCCCC(=O)O)C(=O)N[C@@H](CCC(N)=O)C(=O)N[C@@H](CCC(N)=O)C(=O)N[C@@H](CC(=O)O)C(=O)N[C@@H](Cc1ccccc1)C(=O)N[C@H](C(=O)N[C@@H](CCC(=O)O)C(=O)N[C@@H](Cc1c[nH]c2ccccc12)C(=O)N[C@@H](CC(C)C)C(=O)N[C@@H](CC(C)C)C(=O)N[C@@H](C)C(=O)N[C@@H](CCC(N)=O)C(=O)N[C@@H](CCCCN)C(=O)N1CCC[C@H]1C(=O)N[C@@H](CO)C(=O)N[C@@H](CO)C(=O)NCC(=O)N[C@@H](C)C(=O)N1CCC[C@H]1C(=O)N1CCC[C@H]1C(=O)N1CCC[C@H]1C(=O)N[C@@H](CO)C(=O)O)C(C)C)[C@@H](C)CC [AT617] (H-EGTFISDYSIAMDKIK(C16 diacid)QQDFVEWLLAQKPSSGAPPPS-OH; N-terminus assumed) | 91%
4 | CC[C@H](C)[C@H](NC(=O)[C@H](CO)NC(=O)[C@H](Cc1ccc(O)cc1)NC(=O)[C@H](CC(=O)O)NC(=O)[C@H](CO)NC(=O)[C@@H](NC(=O)[C@H](Cc1ccccc1)NC(=O)[C@@H](NC(=O)CNC(=O)[C@@H](N)CCC(=O)O)[C@@H](C)O)[C@@H](C)CC)C(=O)N[C@@H](C)C(=O)N[C@@H](CCSC)C(=O)N[C@@H](CC(=O)O)C(=O)N[C@@H](CCCCN)C(=O)N[C@H](C(=O)N[C@@H](CCCCNC(=O)CCCCCCCCCCCCCCC(=O)O)C(=O)N[C@@H](CCC(N)=O)C(=O)N[C@@H](CCC(N)=O)C(=O)N[C@@H](CC(=O)O)C(=O)N[C@@H](Cc1ccccc1)C(=O)N[C@H](C(=O)N[C@@H](CCC(=O)O)C(=O)N[C@@H](Cc1c[nH]c2ccccc12)C(=O)N[C@@H](CC(C)C)C(=O)N[C@@H](CC(C)C)C(=O)N[C@@H](C)C(=O)N[C@@H](CCC(N)=O)C(=O)N[C@@H](C)C(=O)N1CCC[C@H]1C(=O)N[C@@H](CO)C(=O)N[C@@H](CO)C(=O)NCC(=O)N[C@@H](C)C(=O)N1CCC[C@H]1C(=O)N1CCC[C@H]1C(=O)N1CCC[C@H]1C(=O)N[C@@H](CO)C(=O)O)C(C)C)[C@@H](C)CC [AT623] (H-EGTFISDYSIAMDKIK(C16 diacid)QQDFVEWLLAQAPSSGAPPPS-OH; N-terminus assumed) | 98%
